“Also recorded” adds a separate entry of the source.
Key:
[1] = tested on: stone fruit; experiment: Reliability of fruit thinning by spraying on fruit trees; assay type: in vivo; settings: sprayed on fruit trees
Source text: GA7 may be used in admixture with GA4, but the relative amounts of GA7 to GA4 are 70% GA7 or more and 30 GA4 or less. Preferably, the GA7 contains less than 10 wt % of GA4 relative to the GA7, more preferably less than 5 wt %. […] In some years, some thinning is observed, but this effect is not consistently achieved.

[2] = tested on: Merryl O Henry peach; experiment: Timing trial in Spain, fruit numbers; assay type: in vivo
Experimental: (§1) Two trials were carried out in Spain: a timing trial and a dose rate trial. The dose rate trial was done at UFO-4 nectarines. The use of GA7 (>95% pure with respect to the presence of GA4) was applied in amounts between 0.25 and 2 L/hL at 2 months of full bloom on UFO-4 peach.
Further trial was executed on Merryl O Henry peach. The application of GA7 was varied over time, and in one programme GA7 was applied in two doses, 2 weeks apart.

[3] = tested on: nectarine; experiment: 2011-12 trial in nectarine, return bloom (number of flowers on distal and basal part of branches); assay type: in vivo
Experimental: (§2) Trials were carried out in Italy and Spain with GA7. The trees were treated with GA7 about 3 months after full bloom in order to reduce flowering the year thereafter.
(§3) In 2011, new trials were started: 4 trials in peach and nectarines.

[4] = tested on: apricot variety; settings: cited from earlier work
[5] = tested on: peach; experiment: Ex 7: 2012 peach return bloom; assay type: in vivo; settings: applied at 50 ppm
Source text: Once again, shoots were divided in half and blossoms were counted according to proximal and distal halves.

[6] = tested on: peach and nectarines; experiment: Other three 2011-12 trials, number of flowers per branch; assay type: in vivo; settings: depending on the trial and the rate
Experimental: as §2, §3

[7] = tested on: peach and nectarine; experiment: 2010-11 thinning trial in Italy; assay type: in vivo; settings: 1 L/100 L ca. 3 months after full bloom, GA7 95% pure relative to GA4
Experimental: as §2

[8] = tested on: peach; experiment: Ex 8: 2011 peach trial (flowers per branch, fruit size and quality); assay type: in vivo
Source text: This study consisted of 3 treatments applied on April 25, May 10, and May 26, 2011 (which is 45, 60 and 75 days after full bloom): • 1. Untreated check • 2. FAL 900 at a rate of 25 ppm ai (C) which is 2.5 g per 100 L, which is 0.25 L formulation per 100 L. • 3. FAL 900 at a rate of 50 ppm ai (C) • 4. FAL 900 at a rate of 10 ppm ai (3 treatments with 2 weeks interval) 2011-12 Observations: Evaluations consisted of assessing for firmness, soluble solids, and titratable acidity, and weight of 20 fruit per plot on end of July early August. Shoot measurements were recorded on end of February in […] from ten shoots per plot. The number of flowers per branch were counted from two halves (proximal and distal) of ten branches per plot on end of February 2012.

[9] = tested on: stone fruit; experiment: Summary of the thinning tests with GA7; assay type: in vivo; settings: compared with fully hand-thinned fruit
[10] = tested on: UFO-4 nectarines; experiment: Dose rate trial in Spain, fruit numbers; assay type: in vivo, nectarine
Experimental: as §1

[11] = tested on: peach; experiment: Initial evaluation trial in Piemonte, GA7 on peach fruitlets; assay type: in vivo; settings: 750 ml/hl on 10 mm fruitlets of peach
Experimental: An initial test was carried out as an evaluation trial in Piemonte with GA7 applied at 750 ml/hl on 10 mm fruitlets of peach.

[12] = tested on: peach and nectarine; experiment: 2010-11 thinning trials in Spain (Catalonia, Masso); assay type: in vivo
Experimental: as §2
In Spain, trials were carried out on peach and nectarine with GA7 (>95% pure relative to GA4). The first assessments were done at harvest in 2010. […] The main assessments took place in spring 2011 (i.e. the next year): The reduction of the number of buds per cm was in the order of 35% in the trials carried out in the Catalonia region. In the trials in Masso also, clear reductions of 41-78% were found depending on the variety and the dose. In the meantime, fruit size was increased. Time necessary for hand thinning was recorded in the trials done in Catalonia. The treatment with GA7 allowed a reduction of about 30% of the hand thinning time.

[13] = tested on: peach; experiment: Ex 6: 2011 peach return bloom (blossom counts proximal/distal); assay type: in vivo
Source text: Shoots were divided in half and blossoms were counted according to proximal, the half closest to the tree trunk, and distal, the half closest to the shoot tip.

[14] = tested on: UFO-4 nectarines; experiment: Dose rate trial in Spain, fruit numbers; assay type: in vivo, nectarine; settings: 10 g/hL (Falgro tablets), comparative experiment B
[15] = 0.5 L/hL, sprays 1.5 and 2 month after full bloom (two doses)
[16] = 1 L/hL, spray 1.5 month after full bloom
[17] = 1 L/hL, spray 2 month after full bloom
[18] = 1 L/hL, spray 2.5 month after full bloom
[19] = 0.25 L/hL at 2 months of full bloom
[20] = 0.5 L/hL at 2 months of full bloom
[21] = 1.0 L/hL at 2 months of full bloom
[22] = 2.0 L/hL at 2 months of full bloom
[23] = 10 g/hL (Falgro tablets), comparative experiment B

C=C1C[C@]23C[C@H]1CC[C@H]2[C@@]12C=C[C@H](O)[C@@](C)(C(=O)O1)[C@H]2[C@@H]3C(=O)O [GA7, gibberellin 7]
reliability of fruit thinning results [1]: reliable thinning results
Number of fruit/m of long fruiting shoots (>20 cm) [2, 15]: 4.7
Number of fruit/m of short fruiting shoots (<20 cm) [2, 15]: 5.8
Number of fruit/m of total fruiting shoots [2, 15]: 5.6
Total number of fruit per tree [2, 15]: 115
Number of fruit/m of long fruiting shoots (>20 cm) [2, 16]: 8.6
Number of fruit/m of short fruiting shoots (<20 cm) [2, 16]: 5.9
Number of fruit/m of total fruiting shoots [2, 16]: 6.5
Total number of fruit per tree [2, 16]: 149
Number of fruit/m of long fruiting shoots (>20 cm) [2, 17]: 5.1
Number of fruit/m of short fruiting shoots (<20 cm) [2, 17]: 3.6
Number of fruit/m of total fruiting shoots [2, 17]: 3.8
Total number of fruit per tree [2, 17]: 77
Number of fruit/m of long fruiting shoots (>20 cm) [2, 18]: 3.7
Number of fruit/m of short fruiting shoots (<20 cm) [2, 18]: 2.8
Number of fruit/m of total fruiting shoots [2, 18]: 3.0
Total number of fruit per tree [2, 18]: 69
effectiveness for thinning stone fruit ([2]; applied at varying times): effective for thinning stone fruit
No of flowers ([3]; basal part, 0.5 L/hL): 8.5
No of flowers, change vs untreated ([3]; basal part, 0.5 L/hL): −37%
No of flowers ([3]; basal part, 1 L/hL): 5.4
No of flowers, change vs untreated ([3]; basal part, 1 L/hL): −60%
return bloom ([3]; distal and proximal part of the branches, rate effect between 0.5 and 1 L/100 L): return bloom is reduced
No of flowers ([3]; distal part, 0.5 L/hL): 4.7
No of flowers, change vs untreated ([3]; distal part, 0.5 L/hL): −58%
No of flowers ([3]; distal part, 1 L/hL): 3.7
No of flowers, change vs untreated ([3]; distal part, 1 L/hL): −67%
effect on flowering vs. untreated ([4]; 6 experiments): only in 1 out of 6 experiments a non significant reducing effect on flowering; also recorded: in 4 experiments out of 6 shows the opposite effect of increased flowering
2012 return bloom, bloom counts totaled across the entire fruiting branch (proximal+distal) [5]: significant reduction
reduction in the number of flowers per branch in comparison to the untreated [6]: −17 to −50%
reduction in the number of fruit/meter of branch ([7]; variety Laura): 1.5%
reduction in the number of fruit/meter of branch ([7]; variety Sinphony): 32.9%
number of flowers on the lower or proximal half of the branch (A) ([8]; 50 ppm ai (C)): significantly lowest
size of peaches collected ([8]; 50 ppm ai, tree also producing the largest peaches in 2011): largest peaches
quality of the peaches ([8]; firmness, soluble solids, titratable acidity, weight): not influenced
quality of the resultant fruit [9]: same quality as fully hand-thinned fruit
Number of fruit/m of long fruiting shoots (>20 cm) [10, 19]: 20
Number of fruit/m of short fruiting shoots (<20 cm) [10, 19]: 27
Number of fruit/m of total fruiting shoots [10, 19]: 21
Total number of fruit per tree [10, 19]: 704
Number of fruit/m of long fruiting shoots (>20 cm) [10, 20]: 23
Number of fruit/m of short fruiting shoots (<20 cm) [10, 20]: 28
Number of fruit/m of total fruiting shoots [10, 20]: 24
Total number of fruit per tree [10, 20]: 729
Number of fruit/m of long fruiting shoots (>20 cm) [10, 21]: 17
Number of fruit/m of short fruiting shoots (<20 cm) [10, 21]: 12
Number of fruit/m of total fruiting shoots [10, 21]: 16
Total number of fruit per tree [10, 21]: 491
Number of fruit/m of long fruiting shoots (>20 cm) [10, 22]: 13
Number of fruit/m of short fruiting shoots (<20 cm) [10, 22]: 7
Number of fruit/m of total fruiting shoots [10, 22]: 12
Total number of fruit per tree [10, 22]: 375
thinning effectiveness of GA7 versus GA3 ([10]; at comparable amounts of GA7 and GA3 (Falgro tablets)): more effective
control of flowering in the following year [11]: high control of flowering
budding ([11]; especially on young lateral branches): better budding
fruit size ([12]; Masso trials, 2011): increased
impact of the treatments on yield and fruit quality ([12]; assessments at harvest in 2010, GA7 >95% pure relative to GA4): did not show any impact
reductions (trials in Masso) ([12]; spring 2011, Masso, depending on the variety and the dose): 41-78%
reduction of the number of buds per cm ([12]; spring 2011, trials in the Catalonia region): ~35%
reduction of the hand thinning time ([12]; trials done in Catalonia): about 30%

C=C1C[C@]23C[C@@]1(O)CC[C@H]2[C@@]12C=C[C@H](O)[C@@](C)(C(=O)O1)[C@H]2[C@@H]3C(=O)O [GA3, gibberellic acid]
Number of fruit/m of short fruiting shoots (<20 cm) [10, 23]: 29
Total number of fruit per tree [10, 23]: 675
blossom counts in comparison to the UTC ([13]; both rates, throughout the trial): consistently lower blossom counts
rate response of blossom counts ([13]; two evaluation dates): a rate response was observed for the first evaluation date, but not the second
Number of fruit/m of long fruiting shoots (>20 cm) [14]: 18
Number of fruit/m of total fruiting shoots [14]: 19

C=C1C[C@]23C[C@H]1CC[C@H]2[C@@]12CC[C@H](O)[C@@](C)(C(=O)O1)[C@H]2[C@@H]3C(=O)O [GA4, reference compound]
effectiveness compared among GA3, GA4 and GA7 ([4]; applied in May or June, source and purity unclear): more effective than either GA3 or GA7
